Reference: the OligoGym collection
Oligonucleotides are written 5' to 3', each unit as a sugar letter and its base; * is a phosphorothioate linkage, no mark a phosphodiester; rarer units and linkages stand in square brackets, end groups in braces. Plain capitals give the bases only. d = 2'-deoxy (DNA); r = 2'-OH (RNA)

What follows are substances tested against UBE2S (assay: reporter assay of Huesken 2005). Settings: siRNA.
Further: test concentration or dose not given here.

Substance	normalised inhibition (eCFP-eYFP dual reporter) [%]
sense rGrGrArGrArArCrUrArCrGrArGrGrArGrUrArUdTdT / antisense rArUrArCrUrCrCrUrCrGrUrArGrUrUrCrUrCrCdAdA	56.3
sense rGrGrCrArUrCrArArGrGrUrCrUrUrUrCrCrCrAdTdT / antisense rUrGrGrGrArArArGrArCrCrUrUrGrArUrGrCrCdAdT	57.3
sense rGrGrCrCrArArGrArArGrCrArUrGrCrUrGrGrCdTdT / antisense rGrCrCrArGrCrArUrGrCrUrUrCrUrUrGrGrCrCdAdT	57.2
sense rGrGrCrCrGrCrCrUrGrCrUrCrUrUrGrGrArGrAdTdT / antisense rUrCrUrCrCrArArGrArGrCrArGrGrCrGrGrCrCdCdG	69.4
sense rGrGrCrUrArCrUrUrCrCrUrGrArCrCrArArGrAdTdT / antisense rUrCrUrUrGrGrUrCrArGrGrArArGrUrArGrCrCdCdT	91.7
sense rGrGrGrCrCrCrUrGrGrCrCrArGrUrGrGrCrArCdTdT / antisense rGrUrGrCrCrArCrUrGrGrCrCrArGrGrGrCrCrCdGdA	43
sense rGrGrGrCrCrGrArArGrCrCrGrGrUrCrGrGrGrCdTdT / antisense rGrCrCrCrGrArCrCrGrGrCrUrUrCrGrGrCrCrCdTdG	36.4
sense rGrGrGrCrUrGrArGrGrGrUrCrCrCrArUrGrGrCdTdT / antisense rGrCrCrArUrGrGrGrArCrCrCrUrCrArGrCrCrCdCdT	45.7
sense rGrGrGrGrCrUrGrArGrGrGrUrCrCrCrArUrGrGdTdT / antisense rCrCrArUrGrGrGrArCrCrCrUrCrArGrCrCrCrCdTdC	42.8
sense rGrGrUrGrArCrGrArCrArCrUrGrArCrCrGrCrAdTdT / antisense rUrGrCrGrGrUrCrArGrUrGrUrCrGrUrCrArCrCdTdC	88.7
sense rGrUrArUrGrCrArGrCrUrCrGrGrGrCrCrCrGrUdTdT / antisense rArCrGrGrGrCrCrCrGrArGrCrUrGrCrArUrArCdTdC	47
sense rGrUrCrArCrCrArUrCrGrArGrGrGrCrCrCrUrGdTdT / antisense rCrArGrGrGrCrCrCrUrCrGrArUrGrGrUrGrArCdCdT	45.1
sense rGrUrGrGrGrCrGrCrCrArArUrGrGrCrGrArGrAdTdT / antisense rUrCrUrCrGrCrCrArUrUrGrGrCrGrCrCrCrArCdGdT	54.4
sense rUrArArCrCrCrCrGrArGrUrCrUrGrCrArCrUrCdTdT / antisense rGrArGrUrGrCrArGrArCrUrCrGrGrGrGrUrUrAdGdG	39.5
sense rUrCrArCrCrArUrCrGrArGrGrGrCrCrCrUrGrAdTdT / antisense rUrCrArGrGrGrCrCrCrUrCrGrArUrGrGrUrGrAdCdC	35.9
sense rUrCrCrArCrCrCrUrArArCrCrCrCrGrArGrUrCdTdT / antisense rGrArCrUrCrGrGrGrGrUrUrArGrGrGrUrGrGrAdTdC	39.4
sense rUrCrCrCrArArCrGrArGrGrArGrGrArCrCrUrCdTdT / antisense rGrArGrGrUrCrCrUrCrCrUrCrGrUrUrGrGrGrAdAdA	35.7
sense rUrCrCrCrCrArCrCrCrArArGrGrGrCrUrArCrUdTdT / antisense rArGrUrArGrCrCrCrUrUrGrGrGrUrGrGrGrGrAdGdG	48.9
sense rUrCrUrGrUrUrCrCrGrCrArUrGrArArArCrUrCdTdT / antisense rGrArGrUrUrUrCrArUrGrCrGrGrArArCrArGrAdCdC	42.3
sense rUrGrArArArCrUrCrCrUrGrCrUrGrGrGrGrArAdTdT / antisense rUrUrCrCrCrCrArGrCrArGrGrArGrUrUrUrCrAdTdG	54
